Data published in patent US9365551B2, “2-(benzyloxy) benzamides as LRRK2 kinase inhibitors” (Glaxo Group Limited, priority 2010, dated 2016).

Columns and labels:
[1] = biological target: T1, 6His-Tev-LRRK2 (1326-2527) (Homo sapiens, UniProt Q5S007); test: LRRK2 AlphaScreen desensitised protein substrate assay; assay type: biochemical; details: mean pIC50 of multiple test results; stated as threshold; read-out: pIC50 in the LRRK2 alphascreen desensitised protein substrate assay (bounds) (converted)
T1 construct: A LRRK2 cDNA encoding residues 1326-2527 was received from Dundee University; made in house; host or cells: Spodoptera frugiperda (Sf9) insect cells, baculovirus (pFB-HTb)
T1 sequence (Q5S007 1326-2527): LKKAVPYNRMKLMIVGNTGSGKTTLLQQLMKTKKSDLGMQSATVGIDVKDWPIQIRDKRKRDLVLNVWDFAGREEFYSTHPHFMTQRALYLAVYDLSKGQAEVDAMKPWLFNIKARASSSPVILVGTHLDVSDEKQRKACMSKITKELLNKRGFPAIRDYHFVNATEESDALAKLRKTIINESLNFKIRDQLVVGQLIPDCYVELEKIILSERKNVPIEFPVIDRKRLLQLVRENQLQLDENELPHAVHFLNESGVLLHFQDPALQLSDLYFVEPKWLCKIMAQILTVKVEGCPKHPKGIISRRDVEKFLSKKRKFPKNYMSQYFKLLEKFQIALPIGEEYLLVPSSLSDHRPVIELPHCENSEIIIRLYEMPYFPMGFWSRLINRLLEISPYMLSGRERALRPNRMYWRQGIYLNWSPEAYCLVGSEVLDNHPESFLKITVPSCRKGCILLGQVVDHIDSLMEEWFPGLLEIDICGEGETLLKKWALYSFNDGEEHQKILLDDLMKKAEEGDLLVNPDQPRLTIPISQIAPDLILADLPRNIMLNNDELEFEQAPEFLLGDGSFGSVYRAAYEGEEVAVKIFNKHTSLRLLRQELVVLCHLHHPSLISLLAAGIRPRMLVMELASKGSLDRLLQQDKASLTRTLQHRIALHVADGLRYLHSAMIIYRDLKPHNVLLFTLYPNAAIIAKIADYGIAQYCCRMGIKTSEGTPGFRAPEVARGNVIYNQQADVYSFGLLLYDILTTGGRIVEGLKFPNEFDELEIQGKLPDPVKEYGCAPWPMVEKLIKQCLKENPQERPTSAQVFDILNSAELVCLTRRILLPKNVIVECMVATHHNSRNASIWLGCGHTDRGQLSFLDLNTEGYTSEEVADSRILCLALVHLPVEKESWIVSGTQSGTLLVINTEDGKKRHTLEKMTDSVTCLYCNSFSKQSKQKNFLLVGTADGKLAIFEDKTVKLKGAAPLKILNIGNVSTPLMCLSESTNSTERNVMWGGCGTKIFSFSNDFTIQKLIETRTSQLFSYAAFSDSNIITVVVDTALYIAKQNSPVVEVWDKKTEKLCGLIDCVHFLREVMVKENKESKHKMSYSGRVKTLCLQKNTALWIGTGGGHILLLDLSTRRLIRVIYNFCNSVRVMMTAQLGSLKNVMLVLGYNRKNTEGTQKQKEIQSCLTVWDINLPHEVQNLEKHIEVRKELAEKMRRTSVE
Procedure, shortened: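 Compounds (1:4 series, top final 30 μM) were preincubated 30 min at room temperature with 6His-Tev-LRRK2 (1326-2527) solution (80 nM) in Hepes pH 7.2, 10 mM MgCl2. Substrate solution held 200 nM GST-PS-Moesin (400-577) and 2 mM ATP, and the reaction ran 20 min. Phospho-Moesin Thr558 was read by AlphaLisa antibody-bead detection after 2 h.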

[2] = biological target: T1, 6His-Tev-LRRK2 (1326-2527); test: LRRK2 peptide substrate assay; assay type: biochemical; details: mean pIC50 of multiple test results; stated as threshold; read-out: pIC50 in the LRRK2 peptide substrate assay (bounds) (converted)
Procedure, shortened: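 Compound (1:4 series, top 30 μM final) preincubated 30 min at RT with the enzyme solution (80 nM) in pH 7.2 Hepes, 10 mM MgCl2 buffer. Reaction was started with substrate solution (2 μM Biotin-LRRKtide, ATP at Km) and run 1–2 h at RT. Phospho-peptide detected by TR-FRET (Eu/APC, 665/620 nm) after EDTA stop.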

IC50 [2] [µM] | Structure (SMILES) | IC50 [1] [µM]
≤ 0.1 | CN1CCN(C(=O)c2cc(OCc3ccccc3)c(C(=O)Nc3cccnn3)cc2Cl)CC1 [Example 56, 2-(benzyloxy)-5-chloro-4-(4-methylpiperazine-1-carbonyl)-N-(pyridazin-3-yl)benzamide] | ≤ 25.1
≤ 0.1 | CN1CCN(C(=O)c2cc(OCc3ccccc3)c(C(=O)Nc3ccccc3)cc2Cl)CC1 [Example 57, 2-(benzyloxy)-5-chloro-4-(4-methylpiperazine-1-carbonyl)-N-phenylbenzamide] | ≤ 25.1
